# Source: patent publication US20230172204A1 (BASF SE, priority 2020, published 2023)
# Key:
# [1] = system: Phakopsora pachyrhizi (F129L); experiment: Protective control of soybean rust on soybeans (PHAKPA P2); assay type: in vivo; settings: for PHAKPA (F129L) Disease level (%) P2 at 16 ppm / PHAKPA (F129L) Disease level (%) P2 at 4 ppm: P2 protective, % diseased leaf area; for % PHAKPA (F129L) Disease level P2 at 4 ppm: protective P2, 4 ppm; for % PHAKPA (F129L) Disease level P2 at 4 ppm / % PHAKPA (F129L) Disease level P2 at 16 ppm: soybean rust F129L; for % PHAKPA (F129L) Disease level P2 at 16 ppm: protective P2, 16 ppm
# [2] = system: Phakopsora pachyrhizi (F129L); experiment: Protective control of soybean rust on soybeans (PHAKPA P6); assay type: in vivo; settings: for PHAKPA (F129L) Disease level (%) P6 at 16 ppm / PHAKPA (F129L) Disease level (%) P6 at 4 ppm: P6 protective, % diseased leaf area; for % PHAKPA (F129L) Disease level P6 at 4 ppm: protective P6, 4 ppm; for % PHAKPA (F129L) Disease level P6 at 4 ppm / % PHAKPA (F129L) Disease level P6 at 16 ppm: soybean rust F129L; for % PHAKPA (F129L) Disease level P6 at 16 ppm: protective P6, 16 ppm
Structure (SMILES),PHAKPA (F129L) Disease level (%) P2 at 16 ppm [1],% PHAKPA (F129L) Disease level P2 at 4 ppm [1],% PHAKPA (F129L) Disease level P2 at 16 ppm [1],PHAKPA (F129L) Disease level (%) P6 at 16 ppm [2],% PHAKPA (F129L) Disease level P6 at 4 ppm [2],% PHAKPA (F129L) Disease level P6 at 16 ppm [2],PHAKPA (F129L) Disease level (%) P2 at 4 ppm [1],PHAKPA (F129L) Disease level (%) P6 at 4 ppm [2]
CO/N=C(/C(=O)OC)c1cccc(C)c1CO/N=C(\C)c1cccc(F)c1 [Ex. 86],6%,12%,3%,7%,23%,3%,–,–
CO/N=C(/C(=O)OC)c1cccc(C)c1CO/N=C(\C)c1ccccc1Br [compound 119],–,93%,63%,–,92%,63%,–,–
CO/N=C(/C(=O)OC)c1cccc(C)c1CO/N=C(\C)c1ccc(Cl)cc1 [Ex. 154],25%,30%,13%,17%,63%,9%,–,–
CO/N=C(/C(=O)OC)c1cccc(C)c1CO/N=C(\C)c1ccc(OC)cc1 [Ex. 216],20%,77%,13%,15%,80%,29%,–,–
CNC(=O)/C(=N/OC)c1cccc(C)c1CO/N=C(\C)c1cc(F)cc(C(F)(F)F)c1 [compound 50],–,2%,1%,–,6%,0%,–,–
CO/N=C(/C(=O)OC)c1cccc(C)c1CO/N=C(\C)c1ccc(F)c(F)c1 [compound 129],–,28%,1%,–,24%,2%,–,–
CO/N=C(/C(=O)OC)c1cccc(C)c1CO/N=C(\C)c1cccc(F)c1C(F)(F)F [compound 330],–,83%,24%,–,93%,17%,–,–
CNC(=O)/C(=N/OC)c1ccccc1CO/N=C(\C)c1cccc(-c2noc(C(F)(F)F)n2)c1 [reference compound],23%,–,–,32%,–,–,–,–
CO/N=C(/C(=O)OC)c1cccc(C)c1CO/N=C(\C)c1c(F)cc(F)cc1F [compound 169],–,77%,0%,–,77%,0%,–,–
CNC(=O)/C(=N/OC)c1cccc(C)c1CO/N=C(\C)c1ccc(C#N)c(C(F)(F)F)c1 [compound 17],–,70%,50%,–,63%,57%,–,–
CO/N=C(/C(=O)OC)c1cccc(C)c1CO/N=C(\C)c1cccc(C2CC2)c1 [compound 297],–,90%,37%,–,87%,37%,–,–
CNC(=O)/C(=N/OC)c1cccc(C)c1CO/N=C(\C)c1ccc(Cl)cc1OC(F)(F)F [compound 375],–,47%,8%,–,40%,6%,–,–
CNC(=O)/C(=N/OC)c1cccc(C)c1CO/N=C(\C)c1ccccc1C [compound 127],–,90%,44%,–,93%,62%,–,–
CCc1ccc(/C(C)=N/OCc2c(C)cccc2/C(=N\OC)C(=O)NC)cc1 [Ex. 165],–,0%,0%,–,17%,0%,0%,27%
C#Cc1cc(/C(C)=N/OCc2c(C)cccc2/C(=N\OC)C(=O)OC)cc(C(F)(F)F)c1 [compound 143],–,4%,0%,–,15%,0%,–,–
CO/N=C(/C(=O)OC)c1cccc(C)c1CO/N=C(\C)c1ccc(F)c(C(F)(F)F)c1 [compound 49],–,60%,18%,–,60%,7%,–,–
CNC(=O)/C(=N/OC)c1cccc(C)c1CO/N=C(\C)c1ccccc1C(F)(F)F [compound 38],–,37%,4%,–,47%,1%,–,–
CO/N=C(/C(=O)OC)c1cccc(C)c1CO/N=C(\C)c1ccc(Cl)c(Cl)c1 [compound 40],–,40%,18%,–,63%,22%,–,–
CNC(=O)/C(=N/OC)c1cccc(C)c1CO/N=C(\C)c1ccccc1C(C)C [compound 220],–,90%,30%,–,100%,77%,–,–
CO/N=C(/C(=O)OC)c1cccc(C)c1CO/N=C(\C)c1ccccc1C(C)C [compound 218],–,100%,87%,–,100%,100%,–,–
"CO/N=C(/C(=O)OC)c1cccc(C)c1CO/N=C(\C)c1cc(Cl)cc(Cl)c1 [Ex. 3, Methyl (2E)-2-[2-[[(E)-1-(3,5-dichlorophenyl)ethylideneamino]oxymethyl]-3-methyl-phenyl]-2-methoxyimino-acetate]",2%,30%,3%,1%,40%,6%,–,–
CNC(=O)/C(=N/OC)c1cccc(C)c1CO/N=C(\C)c1ccccc1C1(C)CC1 [compound 296],–,100%,40%,–,100%,83%,–,–
CNC(=O)/C(=N/OC)c1ccccc1CO/N=C(/c1ccccc1)C(F)F [reference compound],–,–,–,–,–,–,43%,90%
CO/N=C(/C(=O)OC)c1cccc(C)c1CO/N=C(\C)c1ccc(Cl)c(Cl)c1C(F)(F)F [compound 429],–,83%,50%,–,67%,43%,–,–
CNC(=O)/C(=N/OC)c1ccccc1CO/N=C(\C)c1ccc(Cl)c(Cl)c1 [reference compound],–,–,–,–,–,–,43%,77%
